Measured values from patent EP3421037A1, “RLS TREATMENT WITH INHIBITORS OF THE CEREBLON (CRBN) PROTEIN” (Klinikum rechts der Isar der Technischen Universität München, priority 2017, dated 2019).

Test system: RLS patient
Test: Treatment of one RLS patient with thalidomide; RLS severity and sleep disturbance observed weekly with four questionnaires
Assay type: in vivo, human
Conditions: for IRLSSG severity: 100 mg thalidomide daily plus two tablets pramipexole 0.18 mg, scale 0 to 40; for ESS sleepiness: Epworth Sleepiness Scale 0 to 24; for MOS sleep disturbance: range 0-100%; for RLS-6 score: scale 0 to 10
Experimental: The patient had been diagnosed with RLS but had suffered from the disease since childhood. They had family history of RLS with their parent and two siblings being affected.
The patient was washed off the concurrent medication, with the exception of two tablets of 0.18 mg pramipexole, which was maintained throughout the study.
After the baseline period, they were prescribed 100 mg of the inhibitor of the cereblon (CRBN) thalidomide (i.e. 2-(2,6-dioxopiperidin-3-yl)-2,3-dihydro-1H-isoindole-1,3-dione) daily, which they continued taking for three weeks in addition to their two tables pramipexol 0,18 mg treatment.
Throughout the six-week period, the RLS severity and sleep disturbance of the patient were weekly observed with four different questionnaires: • 1. IRLSSG severity scale: This is the gold standard questionnaire to evaluate RLS severity both in clinical practice and in pharmaceutical studies. The scale is based on 10 questions answered by the patient, and final severity score ranges from 0 to 40. On the IRLSSG scale, 0 points corresponds to no RLS, 1-10 points corresponds to mild RLS, 11-20 points corresponds to moderate RLS, 21-30 points corresponds to severe RLS and 31-40 points corresponds to very severe RLS. • 2. RLS-6 scale. This is an alternative scale used to evaluate different aspects of RLS. The average score may be used to evaluate the overall severity of RLS. The scale ranges from 0 to 10, with 0 indicating no RLS and 10 being the most severe RLS severity score. • 3. Epworth Sleepiness Scale (ESS). This is a gold standard questionnaire used to evaluate daytime sleepiness in clinical practice and in pharmaceutical studies. The scale ranges from 0 to 24, where 0-5 corresponds to normal daytime sleepiness, 6-10 corresponds to higher normal daytime sleepiness, 11-12 corresponds to mild excessive daytime sleepiness, 13-15 corresponds to moderate excessive daytime sleepiness and 16-24 corresponds to severe daytime sleepiness. • 4. MOS Sleep Scale. This is a questionnaire used to evaluate sleep disturbance, sleep efficiency, sleep adequacy and other related parameters with different subscores derived from the answers. In this study, the sleep disturbance score was used. The range is 0-100%, 100% indicating the most severe sleep disturbance.

[1] = week 4, 100 mg thalidomide daily plus pramipexole
[2] = week 5, 100 mg thalidomide daily plus pramipexole
[3] = week 6, 100 mg thalidomide daily plus pramipexole

Q: Which results are given for O=C1CCC(N2C(=O)c3ccccc3C2=O)C(=O)N1 (stereo not shown) [Thalidomide, 2-(2,6-dioxopiperidin-3-yl)-2,3-dihydro-1H-isoindole-1,3-dione]?
A: IRLSSG severity (week 4 (first treatment week)): 21 points; ESS sleepiness [1]: 4; MOS sleep disturbance [1]: 31.3%; RLS-6 score [1]: 4.7; IRLSSG severity (week 5 (second treatment week)): 20 points; ESS sleepiness [2]: 7; MOS sleep disturbance [2]: 46.3%; RLS-6 score [2]: 2.7; IRLSSG severity (week 6 (third treatment week)): 16 points; ESS sleepiness [3]: 3; MOS sleep disturbance [3]: 43.8%; RLS-6 score [3]: 2; treatment success of RLS on all four measured scores (weeks 4-6, 100 mg thalidomide daily plus pramipexole, compared with baseline weeks 1-3): significantly benefitted
